Where “and” joins values, the source holds several entries; their conditions need not be identical. Equal entries are not always repeated.
Tests used:
[1] = bolus IV administration, healthy volunteers; cited from earlier work
CYP2C9 = CYP2C9 (Homo sapiens, UniProt P11712); test: CYP phenotyping; conditions: CYP2C9 bactosomes, 1 µM DMT fumarate
healthy subjects = test: Phase I clinical safety and tolerability; format: in vivo, human; conditions: all four doses, 9–21.5 mg IV
CYP1A2 = target: T1, CYP1A2 (Homo sapiens, UniProt P05177); test: CYP phenotyping; conditions: CYP1A2 bactosomes, 1 µM DMT fumarate
T1 sequence (P05177 1-516): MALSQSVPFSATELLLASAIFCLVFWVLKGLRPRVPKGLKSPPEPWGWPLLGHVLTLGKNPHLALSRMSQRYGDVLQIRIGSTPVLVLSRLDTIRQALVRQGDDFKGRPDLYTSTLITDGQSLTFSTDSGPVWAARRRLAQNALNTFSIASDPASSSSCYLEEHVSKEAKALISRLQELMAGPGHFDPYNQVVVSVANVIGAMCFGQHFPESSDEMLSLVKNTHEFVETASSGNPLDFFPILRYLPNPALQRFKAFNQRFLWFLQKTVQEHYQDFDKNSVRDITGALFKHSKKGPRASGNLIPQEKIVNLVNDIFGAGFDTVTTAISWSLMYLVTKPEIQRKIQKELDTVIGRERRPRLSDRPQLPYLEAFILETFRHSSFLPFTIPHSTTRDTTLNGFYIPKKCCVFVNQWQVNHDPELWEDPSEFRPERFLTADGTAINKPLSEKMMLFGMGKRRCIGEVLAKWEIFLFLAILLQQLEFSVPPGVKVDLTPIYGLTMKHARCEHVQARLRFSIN

CYP2D6 = CYP2D6 (Homo sapiens, UniProt P10635); test: CYP phenotyping; conditions: CYP2D6 bactosomes, 1 µM DMT fumarate
CYP2B6 = target: T2, CYP2B6 (Homo sapiens, UniProt P20813); test: CYP phenotyping; conditions: CYP2B6 bactosomes, 1 µM DMT fumarate
T2 sequence (P20813 1-491): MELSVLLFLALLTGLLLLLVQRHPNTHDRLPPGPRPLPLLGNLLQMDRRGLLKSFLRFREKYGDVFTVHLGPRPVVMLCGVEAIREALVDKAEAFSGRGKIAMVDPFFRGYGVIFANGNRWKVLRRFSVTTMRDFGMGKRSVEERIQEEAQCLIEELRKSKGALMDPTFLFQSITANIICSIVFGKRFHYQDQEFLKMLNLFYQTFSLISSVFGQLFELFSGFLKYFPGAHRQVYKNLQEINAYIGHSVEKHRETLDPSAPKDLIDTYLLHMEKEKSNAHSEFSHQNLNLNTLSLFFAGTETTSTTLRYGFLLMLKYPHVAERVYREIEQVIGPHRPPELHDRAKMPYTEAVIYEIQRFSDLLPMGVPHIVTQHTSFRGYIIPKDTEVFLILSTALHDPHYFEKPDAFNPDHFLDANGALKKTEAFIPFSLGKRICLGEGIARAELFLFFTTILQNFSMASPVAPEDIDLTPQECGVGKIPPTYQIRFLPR

CYP2C19 = CYP2C19 (Homo sapiens, UniProt P33261); test: CYP phenotyping; conditions: CYP2C19 bactosomes, 1 µM DMT fumarate
Blood:plasma ratio = format: in vitro ADME; conditions: human, fresh whole blood and plasma
MAO-A = test: Metabolic stability in human liver mitochondrial fraction; format: in vitro ADME; conditions: both, liver mitochondrial fractions, with clorgyline 100 nM
CYP3A4 = CYP3A4 (Homo sapiens, UniProt P08684); test: CYP phenotyping; conditions: CYP3A4 bactosomes, 1 µM DMT fumarate
physchem = format: physicochemical; conditions: pH 7.4
CYP2C8 = target: T3, CYP2C8 (Homo sapiens, UniProt P10632); test: CYP phenotyping; conditions: CYP2C8 bactosomes, 1 µM DMT fumarate
T3 sequence (P10632 1-490): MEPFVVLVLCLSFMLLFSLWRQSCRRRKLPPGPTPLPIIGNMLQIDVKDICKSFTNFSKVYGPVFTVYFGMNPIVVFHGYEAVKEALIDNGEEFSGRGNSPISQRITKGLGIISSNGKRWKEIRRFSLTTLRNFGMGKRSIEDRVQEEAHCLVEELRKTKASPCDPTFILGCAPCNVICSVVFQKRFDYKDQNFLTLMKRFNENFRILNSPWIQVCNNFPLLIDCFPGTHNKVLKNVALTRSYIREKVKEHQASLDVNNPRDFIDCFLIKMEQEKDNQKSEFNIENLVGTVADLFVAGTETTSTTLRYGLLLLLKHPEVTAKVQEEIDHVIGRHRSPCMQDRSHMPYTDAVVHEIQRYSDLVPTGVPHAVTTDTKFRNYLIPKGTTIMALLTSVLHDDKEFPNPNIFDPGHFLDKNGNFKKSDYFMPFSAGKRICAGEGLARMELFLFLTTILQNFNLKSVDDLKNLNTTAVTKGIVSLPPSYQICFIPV

[2] = format: in vivo, human
CYP3A5 = CYP3A5 (Homo sapiens, UniProt P20815); test: CYP phenotyping; conditions: CYP3A5 bactosomes, 1 µM DMT fumarate
Plasma protein binding = conditions: plasma protein binding result

Sequence of CYP2C19 (P33261 whole entry): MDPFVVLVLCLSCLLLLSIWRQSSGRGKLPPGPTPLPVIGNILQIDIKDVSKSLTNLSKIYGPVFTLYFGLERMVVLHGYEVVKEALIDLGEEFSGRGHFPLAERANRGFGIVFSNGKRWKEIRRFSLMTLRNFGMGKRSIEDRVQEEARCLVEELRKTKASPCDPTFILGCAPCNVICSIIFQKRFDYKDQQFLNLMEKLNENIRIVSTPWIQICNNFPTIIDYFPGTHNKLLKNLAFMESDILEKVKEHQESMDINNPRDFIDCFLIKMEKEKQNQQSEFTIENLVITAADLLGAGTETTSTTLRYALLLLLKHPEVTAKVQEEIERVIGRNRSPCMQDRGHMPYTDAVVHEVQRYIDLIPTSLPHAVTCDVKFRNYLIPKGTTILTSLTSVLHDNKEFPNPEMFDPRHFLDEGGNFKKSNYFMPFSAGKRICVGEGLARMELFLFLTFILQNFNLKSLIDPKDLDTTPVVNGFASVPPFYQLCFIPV
Sequence of CYP3A4 (P08684 whole entry): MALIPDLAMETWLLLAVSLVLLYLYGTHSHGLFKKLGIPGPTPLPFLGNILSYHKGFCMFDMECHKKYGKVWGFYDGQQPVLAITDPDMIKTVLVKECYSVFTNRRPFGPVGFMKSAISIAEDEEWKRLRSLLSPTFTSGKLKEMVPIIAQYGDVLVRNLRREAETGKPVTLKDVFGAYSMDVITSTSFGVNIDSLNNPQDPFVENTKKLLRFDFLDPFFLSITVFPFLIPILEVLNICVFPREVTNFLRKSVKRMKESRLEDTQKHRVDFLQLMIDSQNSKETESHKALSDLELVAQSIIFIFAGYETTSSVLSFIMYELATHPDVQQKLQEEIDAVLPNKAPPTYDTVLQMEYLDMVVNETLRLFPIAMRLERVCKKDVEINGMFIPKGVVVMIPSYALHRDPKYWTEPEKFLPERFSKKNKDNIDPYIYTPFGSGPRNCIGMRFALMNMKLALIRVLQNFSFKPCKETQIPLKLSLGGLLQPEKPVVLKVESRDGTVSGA
Sequence of CYP3A5 (P20815 whole entry): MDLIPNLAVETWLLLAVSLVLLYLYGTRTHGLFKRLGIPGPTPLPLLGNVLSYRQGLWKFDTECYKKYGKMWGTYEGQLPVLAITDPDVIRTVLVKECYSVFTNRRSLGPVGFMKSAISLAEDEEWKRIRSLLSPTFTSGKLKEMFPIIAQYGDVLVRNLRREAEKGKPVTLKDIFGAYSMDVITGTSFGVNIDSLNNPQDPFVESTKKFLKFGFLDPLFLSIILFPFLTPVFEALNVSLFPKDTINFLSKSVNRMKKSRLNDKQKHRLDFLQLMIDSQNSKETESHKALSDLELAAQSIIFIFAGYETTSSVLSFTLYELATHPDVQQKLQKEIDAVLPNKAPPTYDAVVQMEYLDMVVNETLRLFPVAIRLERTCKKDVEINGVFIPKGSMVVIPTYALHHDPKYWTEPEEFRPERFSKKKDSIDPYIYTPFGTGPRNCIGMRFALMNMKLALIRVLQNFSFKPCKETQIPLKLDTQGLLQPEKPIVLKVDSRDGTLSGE
Sequence of CYP2C9 (P11712 whole entry): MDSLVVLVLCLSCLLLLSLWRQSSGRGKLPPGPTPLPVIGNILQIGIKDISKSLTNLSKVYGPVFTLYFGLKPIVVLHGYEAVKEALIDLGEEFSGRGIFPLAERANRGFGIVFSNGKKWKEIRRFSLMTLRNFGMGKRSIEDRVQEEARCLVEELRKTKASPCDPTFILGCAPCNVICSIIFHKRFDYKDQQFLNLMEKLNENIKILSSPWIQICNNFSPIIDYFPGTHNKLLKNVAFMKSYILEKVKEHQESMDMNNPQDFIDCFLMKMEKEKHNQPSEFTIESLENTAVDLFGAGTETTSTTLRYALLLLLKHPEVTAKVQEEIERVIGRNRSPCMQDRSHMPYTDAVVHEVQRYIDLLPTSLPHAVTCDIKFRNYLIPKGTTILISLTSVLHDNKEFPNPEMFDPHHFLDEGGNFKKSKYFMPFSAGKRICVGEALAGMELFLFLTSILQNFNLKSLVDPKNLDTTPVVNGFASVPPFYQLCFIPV
Sequence of CYP2D6 (P10635 whole entry): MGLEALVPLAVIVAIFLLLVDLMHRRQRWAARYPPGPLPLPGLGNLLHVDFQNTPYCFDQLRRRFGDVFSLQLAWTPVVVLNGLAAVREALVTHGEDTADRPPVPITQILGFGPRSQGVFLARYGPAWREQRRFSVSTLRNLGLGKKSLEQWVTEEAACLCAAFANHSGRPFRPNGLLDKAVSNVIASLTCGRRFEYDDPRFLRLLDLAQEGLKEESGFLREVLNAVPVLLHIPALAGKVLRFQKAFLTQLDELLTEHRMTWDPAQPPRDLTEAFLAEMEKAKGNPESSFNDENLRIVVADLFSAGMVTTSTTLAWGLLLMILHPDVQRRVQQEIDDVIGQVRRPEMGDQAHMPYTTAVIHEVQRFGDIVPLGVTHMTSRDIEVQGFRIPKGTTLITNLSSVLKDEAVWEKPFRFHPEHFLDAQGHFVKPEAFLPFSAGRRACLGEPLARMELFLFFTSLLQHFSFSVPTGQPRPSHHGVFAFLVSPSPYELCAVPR

SMILES: CN(C)CCc1c[nH]c2ccccc12 [DMT, N,N-dimethyltryptamine]
- Time to peak blood concentrations [1]: approximately 2 min
- Intrinsic clearance (no turnover detected) (CYP2C9): < 29 µl/min/nmol CYP
- Safety and tolerability (healthy subjects): safe and well tolerated
- Serious adverse events (healthy subjects): no serious AEs
- Intrinsic clearance (no turnover detected) (CYP1A2): < 29 µl/min/nmol CYP
- Intrinsic clearance (CYP2D6): 801 µl/min/nmol CYP
- Intrinsic clearance (no turnover detected) (CYP2B6): < 29 µl/min/nmol CYP
- Intrinsic clearance (CYP2C19): 37 µl/min/nmol CYP
- blood plasma ratio at 30 min, 1 µM (Blood:plasma ratio): 1.53
- microsomal CLint at 3.1 µM (MAO-A): < 3.9 µL/min/mg
- Intrinsic clearance (no turnover detected) (CYP3A4): < 29 µl/min/nmol CYP
- logD (physchem): 0.15
- Intrinsic clearance (no turnover detected) (CYP2C8): < 29 µl/min/nmol CYP
- Mean measured concentrations of DMT at the 120 min and 240 min time points ([2]; all cohorts): < 0.1 ng/mL
- concentration at 5 min ([2]; human, plasma, intravenous, 6 mg, Individual C5min, following a 6 mg dose over 5 min, across all dose cohorts): 3.32 to 43 ng/mL
- half-life ([2]; human, plasma, iv, Mean elimination half-life (plasma), all doses, 9–21.5 mg IV 10-min infusion): 10 to 12 min
- Intrinsic clearance (no turnover detected) (CYP3A5): < 29 µl/min/nmol CYP
- Unbound in human plasma (Plasma protein binding): > 65% and 67.7%

Reference: PMC10122081 (European Journal of Drug Metabolism and Pharmacokinetics, 2023)
